The target of assay [1] is T1, Btk (Homo sapiens, UniProt Q06187). In words: Inhibition activity of compounds on Btk by Caliper assay. It is filed as biochemical. The note with it: compound 100 nM, Btk kinase. As to the method: Example 5 Testing the Inhibition Activity of Compounds on Btk by Caliper Assay
The experimental steps were as follows:
Preparation of 1× kinase reaction buffer (50 mM HEPES, PH 7.5; 0.0015% Brij-35) and kinase reaction termination solution (100 mM HEPES, PH 7.5; 0.0015% Brij-35; 0.2% Coating Reagent; 50 mM EDTA);
Preparation of experimental samples: 100 μL of 5 μM sample solution (dissolved in 100% DMSO) was added to a 96-well plate to obtain a 50× sample solution. As a control, two wells were set containing only 100 μL of 100% DMSO on the same plate. One was served as a control without samples and the other was served as a control without enzymes. 10 μL of sample and 90 μL of 1× kinase reaction buffer were added to a 96-well plate as a transfer plate. The transfer plate was shaken for 10 minutes.
Preparation of the test plate: taking 5 μL each of the prepared samples in the 96-well transfer plate into a 384-well plate.
Kinase reaction: to 5 μL of 5× compound solution (dissolved in DMSO, diluted 10 times with water) was added 10 μL of 2.5× Btk kinase solution (kinase was diluted with 1× kinase reaction buffer), and incubated at room temperature for 10 min, then 10 μL of 2.5× substrate peptide solution (FAM-labeled peptide and ATP were diluted with 1× kinase reaction buffer) was added.
Termination of the kinase reaction: 25 μL of kinase termination solution was added after being reacted at 28° C. for a period of time.
The fluorescence (F) was tested on a Caliper and data was collected.
The inhibition rate of kinase activity was calculated: the percent inhibition rate of kinase activity=(FDMSO control−Fsample)/(FDMSO control−Fnegative control)×100, with DMSO as the solution control, and no kinase as the negative control.

For assay [2], the system named is DOHH2 cells (human B cell lymphoma cells). In words: Inhibition of proliferation of DOHH2 cells by CTG assay. Type of assay: cell-based. The note with it: DOHH-2, compound 10 μM, 72 hours. How it is done: (§1) Example 8 Testing the Inhibitory Effect of Formula Compounds on the Proliferation of DOHH2 Cells (Human B Cell Lymphoma Cells) and SU-DHL-6 (Human B Cell Lymphoma Cells) by CTG Assay
(§2) The […] was used to determine the inhibitory effect of the compounds on the proliferation of DOHH2 cells (available from ATCC) and SU-DHL-6 cells (available from ATCC) in vitro. Cells were cultured and compounds were prepared referring to Example 7. The cell plating density was 1×10^4 cells/well for DOHH2 cells, and 1.5×10^4 cells/well for SU-DHL-6 cells. The culture time after the administration was 72 hours. After that an appropriate amount of CTG reagent was added, the luminescence value was measured, and the inhibition rate was calculated.

In assay [3] the test system is SU-DHL-6 (human B cell lymphoma cells). In words: Inhibition of proliferation of SU-DHL-6 cells by CTG assay. As to conditions: compound 10 μM, 72 hours. It is filed as cell-based. As to the method:
as §1, §2

For assay [4], the target named is T1, Btk. The assay can be described thus: Btk protein degradation activity by Western blot in RPMI8226 cells. Details: degradation activity of the compound (10 μM) on Btk protein in RPMI8226 cells; endogenous in cells; host or cells: RPMI8226. As to conditions: compound 10 μM, 24 hours. Type of assay: cell-based. How it is done: Example 6 Testing the Btk Protein Degradation Activity of Compounds by Western Blot
Cell lines: RPMI8226 Cell line was cultured in RPMI1640 medium containing 10% calf serum in a 37° C., 5% CO2, and saturated humidity incubator.
DMSO control group and compound intervention group (10 μM) were set. Cells was collected after the treatment for 24 hours, then 100 μL of pre-chilled cell lysate was added and cells were lysed on ice for 30 minutes. Total cell protein was extracted, and protein concentration was determined and quantified by […] (BCA) method. After routine gelatinization, loading, electrophoresis, then transferring to membrane and blocking, rabbit anti-human Btk (1:500) was added, and incubated at 4° C. overnight. The mixture was rinsed and then horseradish peroxidase labeled goat anti-rabbit IgG (1:5000) was added. After the rinsing it was developed by the ECL developing solution, the Bio-Rad gel imaging system was used for scanning and imaging, and the computer software was used for analysis. […] (GAPDH) was used as an internal control.
Image J software was used to analyze the gray scale of each band to calculate the Btk protein degradation rate of the compound.
For orientation: In western blotting, separated proteins are transferred to a membrane and probed.

Assay [5] has as its system RPMI 8226 cells (human multiple myeloma cells). In words: Inhibition of proliferation of RPMI 8226 cells by CCK8 assay. Type of assay: cell-based. The note with it: 48 hours. How it is done: Example 7 Testing the Inhibitory Effect of Formula Compounds on the Proliferation of RPMI 8226 Cells (Human Multiple Myeloma Cells) by CCK8 Assay
The inhibitory effect of the compound on the proliferation of RPMI 8226 cells (commercially available from ATCC) was determined by the CCK8 assay in vitro. The experimental steps were as follows:
RPMI 8226 cells were cultured in 1640 medium containing 10% calf serum, seeded in a 96-well plate with 2×10^5 cells/well, and placed in a 37° C., 5% CO2 incubator. The compound was dissolved in dimethyl sulfoxide (DMSO) to obtain a solution with a concentration of 10 mM, and then diluted to the desired concentration with a phosphate buffer solution. The solution was added to the above 96-well plate. Each concentration has 2 wells with 10 μl per well. Each concentration was tested in duplicate. As a control, DMSO was diluted in the corresponding gradient and then added to the plate.
After the 96-well plate was cultured in a 37° C., 5% CO2 cell incubator for 48 hours, 10 μl of CCK8 solution was added to each well, and it was cultured in the incubator for another 1 to 4 hours. The light absorption value at 465 nm was measured.
The relative survival rate of the cells after the compound treatment was calculated based on the light absorption value.
The IC50 of the compound against RPMI 8226 cells was calculated by software.
Background: Tetrazolium dyes change colour on reduction, which living cells bring about.

The text below walks through data of patent US11155561B2, “Substituted glutarimides as Btk inhibitors” (SHANGHAI MEIZER PHARMACEUTICALS CO., LTD., priority 2017, dated 2021).

What is called inhibition is the drop in the measured response relative to a control, in per cent. In general, IC50 refers to the concentration needed to halve the response being measured.

T1 sequence (Q06187 whole entry): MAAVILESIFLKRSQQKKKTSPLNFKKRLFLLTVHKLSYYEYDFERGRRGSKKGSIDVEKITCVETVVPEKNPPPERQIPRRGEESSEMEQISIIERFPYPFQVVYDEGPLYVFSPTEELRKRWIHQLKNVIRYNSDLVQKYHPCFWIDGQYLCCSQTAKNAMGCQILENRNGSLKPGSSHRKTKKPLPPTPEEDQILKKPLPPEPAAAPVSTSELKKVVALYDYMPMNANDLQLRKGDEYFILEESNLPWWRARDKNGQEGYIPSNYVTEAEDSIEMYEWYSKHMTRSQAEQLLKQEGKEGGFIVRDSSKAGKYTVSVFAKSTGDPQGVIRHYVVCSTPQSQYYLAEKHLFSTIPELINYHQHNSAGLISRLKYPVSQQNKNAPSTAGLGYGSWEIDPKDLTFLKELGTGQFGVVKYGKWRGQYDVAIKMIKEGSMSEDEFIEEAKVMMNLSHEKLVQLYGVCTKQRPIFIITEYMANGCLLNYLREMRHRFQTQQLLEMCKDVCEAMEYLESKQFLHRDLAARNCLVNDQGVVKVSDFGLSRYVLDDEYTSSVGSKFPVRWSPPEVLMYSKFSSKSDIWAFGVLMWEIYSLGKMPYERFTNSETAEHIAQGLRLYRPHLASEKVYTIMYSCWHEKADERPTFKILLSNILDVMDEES

In the case of `Nc1ncnc2c1c(-c1ccc(Oc3ccccc3)cc1)nn2C1CCCN(CCOCCOCCOCCOc2cccc3c2C(=O)N(C2CCC(=O)NC2=O)C3=O)C1` (stereo not shown) [Compound 16], the inhibition at 0.1 µM against Btk [1] came to 95%. Further, the inhibition at 10 µM in assay [2] came to 84%; in assay [3], 71%. Besides, the Degradation activity entry on Btk [4] was “++++ (“++++” means the degradation rate is greater than 90%)”.
On to `Nc1ncnc2c1c(-c1ccc(Oc3ccccc3)cc1)nn2[C@@H]1CCCN(CCCCCC(=O)Nc2cccc3c2C(=O)N(C2CCC(=O)NC2=O)C3=O)C1` (stereo partly shown) [Compound 3], for which, at Btk [1], the inhibition at 0.1 µM was found to be 92%. For the same compound, in assay [5], the IC50 stood at 34 µM. Besides, the inhibition at 10 µM in assay [2] came to 87%; in assay [3], 60%. Besides, the Degradation activity result at Btk [4] was “++++ (“++++” means the degradation rate is greater than 90%)”.
Consider `C=C(CCOCCOCCOCCOCCOc1cccc2c1C(=O)N(C1CCC(=O)NC1=O)C2=O)C(=O)N1CCCC(n2nc(-c3ccc(Oc4ccccc4)cc3)c3c(N)ncnc32)C1` (stereo not shown) [Compound 32], for which, at Btk [4], the Degradation activity result is “+++ (“+++” represents a degradation rate of 50%-90%)”.
On the same count and under the same terms, to `C=C(CCOCCOCCOCCNc1cccc2c1C(=O)N(C1CCC(=O)NC1=O)C2=O)C(=O)N1CCCC(n2nc(-c3ccc(Oc4ccccc4)cc3)c3c(N)ncnc32)C1` (stereo not shown) [Compound 35] belongs “++++ (“++++” means the degradation rate is greater than 90%)”; to `Nc1ncnc2c1c(-c1ccc(Oc3ccccc3)cc1)nn2C1CCCN(C(=O)/C=C/CCOCCOCCOCCNc2cccc3c2C(=O)N(C2CCC(=O)NC2=O)C3=O)C1` (stereo not shown) [Compound 24], “++++ (“++++” means the degradation rate is greater than 90%)”.
Compound `Nc1ncnc2c1c(-c1ccc(Oc3ccccc3)cc1)nn2C1CCCN(CCOCCOCCOc2cccc3c2C(=O)N(C2CCC(=O)NC2=O)C3=O)C1` (stereo not shown) [Compound 7] registered an inhibition at 0.1 µM on Btk [1] of 99%. Besides, half-maximal inhibition in assay [5] (IC50) was put at 83 µM. Also, the inhibition at 10 µM in assay [2] was 63%; in assay [3] it was 53%. At Btk [4], the Degradation activity result was “++++ (“++++” means the degradation rate is greater than 90%)”.
`Nc1ncnc2c1c(-c1ccc(Oc3ccccc3)cc1)nn2C1CCCN(C(=O)/C=C/CCOCCOCCOCCOCCOc2cccc3c2C(=O)N(C2CCC(=O)NC2=O)C3=O)C1` (stereo not shown) [Compound 22]: the Degradation activity entry at Btk [4] is “+++ (“+++” represents a degradation rate of 50%-90%)”.
Take `Nc1ncnc2c1c(-c1ccc(Oc3ccccc3)cc1)nn2C1CCCN(C(=O)/C=C/CCOCCOCCOCCOc2cccc3c2C(=O)N(C2CCC(=O)NC2=O)C3=O)C1` (stereo not shown) [Compound 18]: on Btk [4], the Degradation activity result is given as “+++ (“+++” represents a degradation rate of 50%-90%)”.
Still for that read-out and setting: the entry for `Nc1ncnc2c1c(-c1ccc(Oc3ccccc3)cc1)nn2C1CCCN(C(=O)/C=C/CCCOCCOCCOCCNc2cccc3c2C(=O)N(C2CCC(=O)NC2=O)C3=O)C1` (stereo not shown) [Compound 25] is “++++ (“++++” means the degradation rate is greater than 90%)”; for `Nc1ncnc2c1c(-c1ccc(Oc3ccccc3)cc1)nn2C1CCCN(C(=O)c2cn(CCOCCOCCOCCOc3cccc4c3C(=O)N(C3CCC(=O)NC3=O)C4=O)nn2)C1` (stereo not shown) [Compound 39] it is “++++ (“++++” means the degradation rate is greater than 90%)”; for `Nc1ncnc2c1c(-c1ccc(Oc3ccccc3)cc1)nn2C1CCCN(C(=O)/C=C/COCCOCCOCCOCCOc2cccc3c2C(=O)N(C2CCC(=O)NC2=O)C3=O)C1` (stereo not shown) [Compound 21] it is “+++ (“+++” represents a degradation rate of 50%-90%)”.
On the same count and under the same terms, to `Nc1ncnc2c1c(-c1ccc(Oc3ccccc3)cc1)nn2C1CCCN(C(=O)/C=C/CCCOCCOCCOCCOc2cccc3c2C(=O)N(C2CCC(=O)NC2=O)C3=O)C1` (stereo not shown) [Compound 19] belongs “+++ (“+++” represents a degradation rate of 50%-90%)”; to `C=C(CCOCCOCCOCCOCCNc1cccc2c1C(=O)N(C1CCC(=O)NC1=O)C2=O)C(=O)N1CCCC(n2nc(-c3ccc(Oc4ccccc4)cc3)c3c(N)ncnc32)C1` (stereo not shown) [Compound 36], “+++ (“+++” represents a degradation rate of 50%-90%)”.
Regarding `Nc1ncnc2c1c(-c1ccc(Oc3ccccc3)cc1)nn2C1CCCN(CCOCCOCCNc2cccc3c2C(=O)N(C2CCC(=O)NC2=O)C3=O)C1` (stereo not shown) [Compound 14], the inhibition at 0.1 µM against Btk [1] came to 99%. For the same compound, inhibition in assay [5] was half-maximal at 6 µM (IC50). Further, the figures for the inhibition at 10 µM in assay [2] and in assay [3] were 98% and 87%, respectively. The Degradation activity result at Btk [4] is recorded as “++++ (“++++” means the degradation rate is greater than 90%)”.
The compound `Nc1ncnc2c1c(-c1ccc(Oc3ccccc3)cc1)nn2C1CCCN(CCOCCOCCOCCNc2cccc3c2C(=O)N(C2CCC(=O)NC2=O)C3=O)C1` (stereo not shown) [Compound 15] displayed an inhibition at 0.1 µM at Btk [1] of 98%. Besides, the values for the inhibition at 10 µM in assay [2] and in assay [3] were 99% and 94%, respectively. Further, the Degradation activity result on Btk [4] is given as “++++ (“++++” means the degradation rate is greater than 90%)”.
With `C=C(CCCOCCOCCOc1cccc2c1C(=O)N(C1CCC(=O)NC1=O)C2=O)C(=O)N1CCCC(n2nc(-c3ccc(Oc4ccccc4)cc3)c3c(N)ncnc32)C1` (stereo not shown) [Compound 29], the Degradation activity entry on Btk [4] is recorded as “++++ (“++++” means the degradation rate is greater than 90%)”.
